Where no end group is shown, it is not given here.
What was measured:
[1] = tested on: Thy 1.2+ thymocytes of the epidermis; assay: Thy 1.2+ epidermal cell density after topical application to mouse ear (immunofluorescence); type: in vivo, C57-BL/6 mice; conditions: for Number of Thy 1.2+ cells per mm^2 of epidermis, batch 1 / Number of Thy 1.2+ cells per mm^2 of epidermis, batch 2 / Number of Thy 1.2+ cells per mm^2 of epidermis, batch 3 / Number of Thy 1.2+ cells per mm^2 of epidermis, batch 4 / Number of Thy 1.2+ cells per mm^2 of epidermis, Mean: C 57 BL/6 mice; for Number of Thy 1.2+ cells per mm^2 of epidermis, Mean: 4 batches; for Thy 1.2+ cells % T: relative to PG controls
Experimental: (§1) I--Experimental Samples--Code: ETF
(§2) In solution in propylene glycol at a concentration of 10^-5 M/ml
(§3) 5 to 7-week-old male C 57-BL/6 mice, which are divided into groups of 4 per cage, and which have free access to water and food and which are subjected to a photoperiod of 12 h of light per 24 hours, are given a topical application of the peptide in propylene glycol (50 μl vol) on the dorsal surface of the ear daily for 5 consecutive days.
(§4) The animals are sacrificed on day 6. The ears are removed, with the dorsal and ventral surfaces being separated.
(§5) The tissues of the dorsal surface are immersed in Na EDTA (0.020 M) at 37° C. for 2 h.
(§6) After incubation, the epidermis is removed in the form of an intact sheet, fixed with acetone and rehydrated in PBS (phosphate buffer).
(§7) The Thy 1-2+ and Ia+ EDC (epidermal dendritic cells) are identified by indirect immunofluorescence double labeling.
(§8) In the case of each epidermal sheet, the number of cells per mm^2 is determined using the peripheral regions of the same surface.
The Thy 1.2+ EDC were identified by indirect immunofluorescence double labeling. The epidermal sheets were fixed with acetone and then rehydrated in PBS.
The tissues were labeled simultaneously, at 4° C. for 16 h, with mouse anti-Thy 1.2+ antibody which was diluted 1:100. The tissue samples were washed three times in PBS for 60 min and then incubated, at 37° C. for 60 min, either with goat antimouse antibody which was coupled to rhodamine and diluted 1:20, or with goat antirabbit antibody which was coupled to fluorescein (fluorescine and diluted 1:20 in PBS. The tissues were then washed in PBS before being mounted as previously described.
(§9) In the case of each epidermal sheet, the number of Ia+ Langerhans cells or Thy 1.2+ EDCs per square millimeter was determined by means of immunofluorescence, using a confocal Zeiss microscope which was equipped for this purpose, in four peripheral areas of the same surface. At least four animals were studied in each of the groups. The density of Ia+ Langerhans cells and Thy 1.2+ EDCs is shown for each measurement.

Ia+ Langerhans cells = assay: Ia+ Langerhans cell density after topical application to mouse ear; type: in vivo, C57-BL/6 mice; conditions: for Number of Ia+ cells per mm^2 of epidermis, batch 1 / Number of Ia+ cells per mm^2 of epidermis, batch 2 / Number of Ia+ cells per mm^2 of epidermis, batch 3 / Number of Ia+ cells per mm^2 of epidermis, batch 4 / Number of Ia+ cells per mm^2 of epidermis, Mean: C 57 BL/6 mice; for Number of Ia+ cells per mm^2 of epidermis, Mean: 4 batches; for Ia+ cells %: relative to PG controls
Experimental: as §1, §2, §3, §4, §5, §6, §7, §8
The EDC (epidermal dendritic cells) carrying the Ia+ marker were identified using an anti-Ia+ monoclonal antibody.
The epidermal sheets are fixed with acetone and then incubated, at 37° C. for 1 h, in the presence of the anti-Ia+ monoclonal antibody, which has been labeled by the indirect immunoperoxidase method (Kit).
After having been incubated at 37° C. for 10 minutes with a solution of aminoethylcarbazole, the preparation is washed with PBS.
as §9

A-Arg-Lys-Asp-Val-NH2 (RKDV; not fully specified (N-terminus, C-terminus)) [ETF-XIX, A not specified for the tested sample]
Number of Thy 1.2+ cells per mm^2 of epidermis, batch 1 ([1]; dose 0.10 Nanog.): 216 cells per mm^2
Number of Thy 1.2+ cells per mm^2 of epidermis, batch 2 ([1]; dose 0.10 Nanog.): 210 cells per mm^2
Number of Thy 1.2+ cells per mm^2 of epidermis, batch 3 ([1]; dose 0.10 Nanog.): 219 cells per mm^2
Number of Thy 1.2+ cells per mm^2 of epidermis, batch 4 ([1]; dose 0.10 Nanog.): 212 cells per mm^2
Number of Thy 1.2+ cells per mm^2 of epidermis, Mean ([1]; dose 0.10 Nanog.): 214.25 cells per mm^2
Thy 1.2+ cells % T ([1]; dose 0.10 Nanog.): 143%
Number of Thy 1.2+ cells per mm^2 of epidermis, batch 1 ([1]; dose 0.50 Nanog.): 220 cells per mm^2
Number of Thy 1.2+ cells per mm^2 of epidermis, batch 2 ([1]; dose 0.50 Nanog.): 215 cells per mm^2
Number of Thy 1.2+ cells per mm^2 of epidermis, batch 3 ([1]; dose 0.50 Nanog.): 228 cells per mm^2
Number of Thy 1.2+ cells per mm^2 of epidermis, batch 4 ([1]; dose 0.50 Nanog.): 216 cells per mm^2
Number of Thy 1.2+ cells per mm^2 of epidermis, Mean ([1]; dose 0.50 Nanog.): 219.75 cells per mm^2
Thy 1.2+ cells % T ([1]; dose 0.50 Nanog.): 149%
Number of Thy 1.2+ cells per mm^2 of epidermis, batch 1 ([1]; dose 1.00 Nanog.): 227 cells per mm^2
Number of Thy 1.2+ cells per mm^2 of epidermis, batch 2 ([1]; dose 1.00 Nanog.): 238 cells per mm^2
Number of Thy 1.2+ cells per mm^2 of epidermis, batch 3 ([1]; dose 1.00 Nanog.): 230 cells per mm^2
Number of Thy 1.2+ cells per mm^2 of epidermis, batch 4 ([1]; dose 1.00 Nanog.): 225 cells per mm^2
Number of Thy 1.2+ cells per mm^2 of epidermis, Mean ([1]; dose 1.00 Nanog.): 230.00 cells per mm^2
Thy 1.2+ cells % T ([1]; dose 1.00 Nanog.): 161%
Number of Ia+ cells per mm^2 of epidermis, batch 1 (Ia+ Langerhans cells; dose 0.10 Nanog.): 360 cells per mm^2
Number of Ia+ cells per mm^2 of epidermis, batch 2 (Ia+ Langerhans cells; dose 0.10 Nanog.): 390 cells per mm^2
Number of Ia+ cells per mm^2 of epidermis, batch 3 (Ia+ Langerhans cells; dose 0.10 Nanog.): 378 cells per mm^2
Number of Ia+ cells per mm^2 of epidermis, batch 4 (Ia+ Langerhans cells; dose 0.10 Nanog.): 320 cells per mm^2
Number of Ia+ cells per mm^2 of epidermis, Mean (Ia+ Langerhans cells; dose 0.10 Nanog.): 362.00 cells per mm^2
Ia+ cells % (Ia+ Langerhans cells; dose 0.10 Nanog.): 253%
Number of Ia+ cells per mm^2 of epidermis, batch 1 (Ia+ Langerhans cells; dose 0.50 Nanog.): 388 cells per mm^2
Number of Ia+ cells per mm^2 of epidermis, batch 2 (Ia+ Langerhans cells; dose 0.50 Nanog.): 398 cells per mm^2
Number of Ia+ cells per mm^2 of epidermis, batch 3 (Ia+ Langerhans cells; dose 0.50 Nanog.): 386 cells per mm^2
Number of Ia+ cells per mm^2 of epidermis, batch 4 (Ia+ Langerhans cells; dose 0.50 Nanog.): 400 cells per mm^2
Number of Ia+ cells per mm^2 of epidermis, Mean (Ia+ Langerhans cells; dose 0.50 Nanog.): 393.00 cells per mm^2
Ia+ cells % (Ia+ Langerhans cells; dose 0.50 Nanog.): 283%
Number of Ia+ cells per mm^2 of epidermis, batch 1 (Ia+ Langerhans cells; dose 1.00 Nanog.): 400 cells per mm^2
Number of Ia+ cells per mm^2 of epidermis, batch 2 (Ia+ Langerhans cells; dose 1.00 Nanog.): 410 cells per mm^2
Number of Ia+ cells per mm^2 of epidermis, batch 3 (Ia+ Langerhans cells; dose 1.00 Nanog.): 438 cells per mm^2
Number of Ia+ cells per mm^2 of epidermis, batch 4 (Ia+ Langerhans cells; dose 1.00 Nanog.): 415 cells per mm^2
Number of Ia+ cells per mm^2 of epidermis, Mean (Ia+ Langerhans cells; dose 1.00 Nanog.): 415.75 cells per mm^2
Ia+ cells % (Ia+ Langerhans cells; dose 1.00 Nanog.): 306%

— patent US6211155A, “Peptide conjugates derived from thymic hormones, their use as a medicament and compositions containing them” (Institut European de Biologie Cellulaire, priority 1995, dated 2001)
